Assay results taken from US20260223850A1, “SUBSTITUTED PYRROLIDONE COMPOUND, PREPARATION METHOD THEREFOR, COMPOSITION AND APPLICATION THEREOF” (QINGDAO KINGAGROOT CHEMICAL COMPOUND CO., LTD., priority 2023, published 2026).

Assays:
Assay type in all cases: in vivo
Echinochloa phyllopogon = assay: Seedling stage sealing experiment for water-seeding; conditions: 120 g a.i./ha, 15 days, fresh weight control rate
How it was run: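 Pre-emergence spray on soil-covered seeds in moist bowls, rates 120/60/30/15 g a.i./ha, n = 3. Fresh-weight control graded 0–9 at day 15.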

Echinochloa crusgalli = assay: as above; conditions: 120 g a.i./ha, 15 days, fresh weight control rate
Huaidao (rice cultivar) = assay: Seedling stage sealing experiment for water-seeding (crop safety); conditions: 120 g a.i./ha, 15 days, fresh weight control rate; for Huaidao (rice cultivar) plant damage level: seedling stage sealing; for Huaidao (rice cultivar) plant damage level (growth control rate): spray, seedling stage sealing for water-seeding
Description: The activity level criteria for plant damage (i.e., growth control rate) are as follows: • Level 9: completely dead; • Level 8: growth control rate greater than or equal to 90% and less than 100%; • Level 7: growth control rate greater than or equal to 80% and less than 90%; • Level 6: growth control rate greater than or equal to 70% and less than 80%; • Level 5: growth control rate greater than or equal to 50% and less than 70%; • Level 4: growth control rate greater than or equal to 30% and less than 50%; • Level 3: growth control rate greater than or equal to 20% and less than 30%; • Level 2: growth control rate greater than or equal to 10% and less than 20%; • Level 1: growth control rate less than 10%; • Level 0: no effect.
The above growth control rates are fresh weight control rates.
Echinochloa phyllopogon, Digitaria sanguinalis, Huaidao (rice cultivar), etc. were broadcasted on the surface of nutrition bowls filled with soil and fully covered by soil. The foregoing well-prepared nutrition bowls were then placed in a cultivation box with water filled to a suitable height to keep the soil in the nutrition bowls moist. A test compound of the present invention was individually dissolved with acetone, then diluted into solution of a certain concentration using a certain amount of water, and sprayed using a spray tower. The plants were placed on a greenhouse seedbed and cultured for 15 days, and the experimental results were then collected. The compound was applied at 120, 60, 30 and 15 g a.i./ha in triplicate, and the results were averaged.

[1] = spray, seedling stage sealing for water-seeding

| SMILES | Echinochloa phyllopogon activity level (growth control rate) (Echinochloa phyllopogon; seedling stage sealing) | Echinochloa crusgalli activity level (growth control rate) (Echinochloa crusgalli; seedling stage sealing) | Huaidao (rice cultivar) plant damage level (Huaidao (rice cultivar)) | Echinochloa phyllopogon activity level (growth control rate) (Echinochloa phyllopogon; [1]) | Echinochloa crusgalli activity level (growth control rate) (Echinochloa crusgalli; [1]) | Huaidao (rice cultivar) plant damage level (growth control rate) (Huaidao (rice cultivar)) |
| --- | --- | --- | --- | --- | --- | --- |
| Cc1cc(C)cc([C@H]2CNC(=O)[C@@H]2C(=O)Nc2cnn(C)c2Cl)c1 [416′] | 6 (Level 6: growth control rate greater than or equal to 70% and less than 80%) | 9 | 0 |  |  |  |
| Cc1cc(C)cc([C@H]2CN(C)C(=O)[C@@H]2C(=O)Nc2cnn(C)c2CF)c1 [495′] |  |  |  | 7 (Level 7: growth control rate greater than or equal to 80% and less than 90%) | 9 | 0 |
| CN1C[C@H](c2cccc(C3CC3)c2)[C@@H](C(=O)Nc2cnn(C(F)F)c2Cl)C1=O [413′] | 9 | 9 | 0 |  |  |  |
| C=Cc1c(NC(=O)[C@H]2C(=O)N(C)C[C@@H]2c2cccc(C(F)(F)F)c2)cnn1C(F)F [406′] | 9 | 9 | 2 (Level 2: growth control rate greater than or equal to 10% and less than 20%) |  |  |  |
| CN1C[C@H](c2cc(Cl)cc(Cl)c2)[C@@H](C(=O)Nc2cnn(C(F)F)c2Cl)C1=O [442′] | 8 (Level 8: growth control rate greater than or equal to 90% and less than 100%) | 8 (Level 8: growth control rate greater than or equal to 90% and less than 100%) | 0 |  |  |  |
| C#CCn1ncc(NC(=O)[C@H]2C(=O)N(C)C[C@@H]2c2cccc(C)c2)c1Cl [132′] | 7 (Level 7: growth control rate greater than or equal to 80% and less than 90%) | 7 (Level 7: growth control rate greater than or equal to 80% and less than 90%) | 0 |  |  |  |
| CN1CC(c2cccc(C(F)(F)F)c2)C(C(=O)Nc2c(Cl)nn(C)c2Cl)C1=O (stereo not drawn) [Compound 94] | 5 (Level 5: growth control rate greater than or equal to 50% and less than 70%) | 5 (Level 5: growth control rate greater than or equal to 50% and less than 70%) | 0 |  |  |  |
| CN1C[C@H](c2cc(Br)cc(Br)c2)[C@@H](C(=O)Nc2cnn(C)c2Cl)C1=O [440′] | 9 | 9 | 0 |  |  |  |
| CN1C[C@H](c2cccc(C(F)(F)F)c2)[C@@H](C(=O)Nc2cnn(C)c2C(F)F)C1=O [478′] |  |  |  | 9 | 9 | 0 |
| Cc1cc(C2CN(C)C(=O)C2C(=O)Nc2cnn(C)c2C(F)(F)F)cc(C)c1C (stereo not drawn) [Compound 517] |  |  |  | 9 | 9 | 0 |
| C=C(C)c1c(NC(=O)[C@H]2C(=O)N(C)C[C@@H]2c2cccc(C)c2)cnn1C [379′] | 6 (Level 6: growth control rate greater than or equal to 70% and less than 80%) | 9 | 0 |  |  |  |
| Cc1cccc([C@H]2CN(C)C(=O)[C@@H]2C(=O)Nc2cnn(C)c2C#N)c1 [391′] | 9 | 9 | 0 |  |  |  |
| CCn1ncc(NC(=O)[C@H]2C(=O)N(C)C[C@@H]2c2cccc(C)c2)c1C1CC1 [394′] | 6 (Level 6: growth control rate greater than or equal to 70% and less than 80%) | 9 | 0 |  |  |  |
| COCn1ncc(NC(=O)[C@H]2C(=O)N(C)C[C@@H]2c2cccc(C)c2)c1Cl [127′] | 8 (Level 8: growth control rate greater than or equal to 90% and less than 100%) | 9 | 0 |  |  |  |
| CCc1c(NC(=O)[C@H]2C(=O)N(C)C[C@@H]2c2cc(C)cc(C)c2)cnn1C [273′] | 6 (Level 6: growth control rate greater than or equal to 70% and less than 80%) | 9 | 0 |  |  |  |
| CN1C[C@H](c2cc(Br)cc(C(F)F)c2)[C@@H](C(=O)Nc2cnn(C)c2Cl)C1=O [511′] |  |  |  | 6 (Level 6: growth control rate greater than or equal to 70% and less than 80%) | 9 | 0 |
| CN1C[C@H](c2cccc(C(F)(F)F)c2)[C@@H](C(=O)Nc2cnn(C)c2S(C)(=O)=O)C1=O [480′] |  |  |  | 9 | 9 | 1 (Level 1: growth control rate less than 10%) |
| Cc1cc(F)cc([C@H]2CN(C)C(=O)[C@@H]2C(=O)Nc2cnn(C)c2Cl)c1 [264′] | 9 | 9 | 0 |  |  |  |
| Cc1ccc([C@H]2CN(C)C(=O)[C@@H]2C(=O)Nc2cnn(C(F)F)c2Cl)cc1C [487′] |  |  |  | 9 | 9 | 2 (Level 2: growth control rate greater than or equal to 10% and less than 20%) |
| Cc1ccc([C@H]2CN(C)C(=O)[C@@H]2C(=O)Nc2cnn(C)c2Cl)cc1C [314′] | 9 | 9 | 0 |  |  |  |
| CCn1ncc(NC(=O)[C@H]2C(=O)N(C)C[C@@H]2c2cccc(C)c2)c1Cl [385′] | 9 | 9 | 2 (Level 2: growth control rate greater than or equal to 10% and less than 20%) |  |  |  |
| CCc1ccc([C@H]2CN(C)C(=O)[C@@H]2C(=O)Nc2cnn(C)c2Cl)s1 [338′] | 6 (Level 6: growth control rate greater than or equal to 70% and less than 80%) | 9 | 0 |  |  |  |
| Cc1nn(C(F)F)c(Cl)c1NC(=O)[C@H]1C(=O)N(C)C[C@@H]1c1cccc(C(F)(F)F)c1 [209′] | 6 (Level 6: growth control rate greater than or equal to 70% and less than 80%) | 7 (Level 7: growth control rate greater than or equal to 80% and less than 90%) | 0 |  |  |  |
| C#CCn1ncc(NC(=O)[C@H]2C(=O)N(C)C[C@@H]2c2cccc(C(F)(F)F)c2)c1Cl [163′] | 8 (Level 8: growth control rate greater than or equal to 90% and less than 100%) | 9 | 0 |  |  |  |
| Cc1cc(C)cc([C@H]2CN(C)C(=O)[C@@H]2C(=O)Nc2cnn(C)c2C(F)(F)F)c1 [427′] | 9 | 9 | 2 (Level 2: growth control rate greater than or equal to 10% and less than 20%) |  |  |  |
